Measured values as given in US20210267203A1, “PESTICIDALLY ACTIVE AZOLE-AMIDE COMPOUNDS” (SYNGENTA PARTICIPATIONS AG, priority 2018, published 2021).

Assays:
Type in all cases: in vivo
[1] = tested on: Euschistus heros (Neotropical Brown Stink Bug); assay: Example B2: Euschistus heros (neotropical brown stink bug), soybean leaves sprayed, N2 nymphs; conditions: 120 h, application rate 200 ppm, 5 days after infestation, read-out: effect in at least one of the two categories (mortality or growth inhibition)
Summary of the method: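 Soybean leaves on agar sprayed with aqueous test solutions made from 10,000 ppm DMSO stocks, dried, then infested with N2 nymphs. Mortality and growth inhibition scored versus untreated samples 5 days after infestation; activity threshold at 200 ppm.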

[2] = tested on: Plutella xylostella (Diamond Back Moth); assay: Example B5: Plutella xylostella (diamond back moth), artificial diet, 24-well, eggs; conditions: 192 h, application rate 200 ppm, 8 days after infestation, read-out: effect in at least one of the two categories (mortality or growth inhibition)
Summary of the method: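 Artificial diet in 24-well plates treated with aqueous dilutions of 10,000 ppm DMSO stocks, dried, then infested with Plutella eggs. Mortality and growth inhibition scored against untreated samples 8 days after infestation; activity rated at 200 ppm application rate.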

[3] = tested on: Tetranychus urticae (Two-Spotted Spider Mite); assay: Example B11: Tetranychus urticae (two-spotted spider mite), feeding/contact activity; conditions: 192 h, application rate 200 ppm, mixed population (mobile stages), 8 days after infestation
Protocol: Example B11: Tetranychus urticae (Two-Spotted Spider Mite):Feeding/Contact Activity
Bean leaf discs on agar in 24-well microtiter plates were sprayed with aqueous test solutions prepared from 10,000 ppm DMSO stock solutions. After drying the leaf discs were infested with a mite population of mixed ages. The samples were assessed for mortality on mixed population (mobile stages) 8 days after infestation.

[4] = tested on: Myzus persicae (Green Peach Aphid); assay: Example B13: activity against Myzus persicae (green peach aphid), 96-well sucrose solution; conditions: 120 h, application rate 50 ppm, 5 days after infestation
Summary of the method: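 Compounds, from 10,000 ppm DMSO stocks, mixed into sucrose solution in wells under stretched Parafilm, with aphids placed on the membrane in an inverted feeding setup. Mortality scored 5 days after infestation.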

[5] = tested on: Plutella xylostella (Diamondback Moth); assay: Example B14: activity against Plutella xylostella (diamondback moth), 96-well artificial diet; conditions: 216 h, application rate 500 ppm, 9 days after infestation
Summary of the method: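 Diet in 96-well plates was treated with aqueous dilutions of 10,000 ppm DMSO stocks, dried, and infested with 30 eggs per well via a netted lid; hatching L1 larvae fed on the diet. Mortality scored 9 days after infestation.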

[6] = tested on: Diabrotica Balteata (Corn Root Worm); assay: Example B1: Diabrotica balteata (corn root worm), maize sprouts sprayed, L2 larvae; conditions: 96 h, application rate 200 ppm, 4 days after infestation, read-out: effect in at least one of the two categories (mortality or growth inhibition)
Summary of the method: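 Maize sprouts on agar sprayed with aqueous dilutions of 10,000 ppm DMSO stocks, dried, then infested with 6–10 L2 larvae per well. Mortality and growth inhibition scored against untreated samples 4 days after infestation; rates of 200 ppm.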

[7] = tested on: Myzus persicae (Green Peach Aphid); assay: Example B6: Myzus persicae (green peach aphid), feeding/contact activity; conditions: 144 h, application rate 200 ppm, 6 days after infestation
Protocol: Example B6: Myzus persicae (Green Peach Aphid):Feeding/Contact Activity
Sunflower leaf discs were placed onto agar in a 24-well microtiter plate and sprayed with aqueous test solutions prepared from 10,000 ppm DMSO stock solutions. After drying, the leaf discs were infested with an aphid population of mixed ages. The samples were assessed for mortality 6 days after infestation.

[8] = tested on: Myzus persicae (Green Peach Aphid); assay: Example B7: Myzus persicae (green peach aphid), systemic activity; conditions: 144 h, test rate 24 ppm, pea seedling roots in test solution, 6 days
Protocol: Example B7: Myzus persicae (Green Peach Aphid), Systemic Activity
Roots of pea seedlings infested with an aphid population of mixed ages were placed directly into aqueous test solutions prepared from 10,000 DMSO stock solutions. The samples were assessed for mortality 6 days after placing seedlings into test solutions.

[9] = tested on: Myzus persicae (Green Peach Aphid); assay: Example B8: Myzus persicae (green peach aphid), intrinsic activity; conditions: 120 h, test rate 12 ppm, sucrose solution, 24-well, 5 days after infestation
Summary of the method: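 Compounds diluted from 10,000 ppm DMSO stock were mixed with sucrose solution under stretched Parafilm in a sachet feeding setup, with aphid-infested pea seedlings placed on the membrane. Mortality was scored 5 days after infestation.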

[10] = tested on: Thrips tabaci (Onion Thrips); assay: Example B12: Thrips tabaci (onion thrips), feeding/contact activity; conditions: 144 h, application rate 200 ppm, mixed ages, 6 days after infestation
Protocol: Example B12: Thrips tabaci (Onion Thrips) Feeding/Contact Activity
Sunflower leaf discs were placed on agar in 24-well microtiter plates and sprayed with aqueous test solutions prepared from 10,000 ppm DMSO stock solutions. After drying the leaf discs were infested with a thrips population of mixed ages. The samples were assessed for mortality 6 days after infestation.

[11] = tested on: Chilo suppressalis (Striped Rice Stemborer); assay: Example B4: Chilo suppressalis (striped rice stemborer), artificial diet, L2 larvae; conditions: 144 h, application rate 200 ppm, 6 days after infestation
Summary of the method: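 L2 larvae (6-8 per well) placed on artificial diet treated with aqueous test solutions prepared from 10,000 ppm DMSO stocks, after drying. Mortality, anti-feeding and growth inhibition scored against untreated samples 6 days after infestation; control means at least one category exceeds untreated.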

[12] = tested on: Spodoptera littoralis (Egyptian Cotton Leaf Worm); assay: Example B9: Spodoptera littoralis (Egyptian cotton leaf worm), cotton leaf discs sprayed, L1 larvae; conditions: foliar, 72 h, application rate 200 ppm, 3 days after infestation
Summary of the method: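 Leaf discs on agar sprayed with aqueous dilutions from 10,000 ppm DMSO stock, dried, then infested with five L1 larvae. Mortality, anti-feeding and growth inhibition scored against untreated samples 3 days after infestation; control counted when any category exceeds untreated.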

[13] = tested on: Frankliniella occidentalis (Western Flower Thrips); assay: Example B3: Frankliniella occidentalis (western flower thrips), feeding/contact activity; conditions: 168 h, application rate 200 ppm, mixed ages, 7 days after infestation
Protocol: Example B3: Frankliniella occidentalis (Western Flower Thrips):Feeding/Contact Activity
Sunflower leaf discs were placed on agar in 24-well microtiter plates and sprayed with aqueous test solutions prepared from 10,000 DMSO stock solutions. After drying the leaf discs were infested with a Frankliniella population of mixed ages. The samples were assessed for mortality 7 days after infestation.

CC(c1ncnn1-c1ncccn1)N(CC1CC1)C(=O)c1cc(C(C)(C)C#N)cc(Cl)n1 (centres unmarked) [P27, 6-chloro-4-(1-cyano-1-methyl-ethyl)-N-(cyclopropylmethyl)-N-[1-(2-pyrimidin-2-yl-1,2,4-triazol-3-yl)ethyl]pyridine-2-carboxamide]
≥ 80%: percent effect (mortality or growth inhibition) at 200 ppm [1] | percent effect (mortality or growth inhibition) at 200 ppm [2] | mortality at 200 ppm [3] | mortality at 50 ppm [4] | mortality at 500 ppm [5]

CC(c1ncnn1-c1ncccn1)N(CC1CC1)C(=O)c1cc(C(F)(F)F)cc(S(C)(=O)=O)c1 (centres unmarked) [P34, N-(cyclopropylmethyl)-3-methylsulfonyl-N-[1-(2-pyrimidin-2-yl-1,2,4-triazol-3-yl)ethyl]-5-(trifluoromethyl)benzamide]
≥ 80%: percent effect (mortality or growth inhibition) at 200 ppm [6] | percent effect (mortality or growth inhibition) at 200 ppm [1] | percent effect (mortality or growth inhibition) at 200 ppm [2] | mortality at 200 ppm [7] | mortality at 24 ppm [8] | mortality at 12 ppm [9] | mortality at 200 ppm [3] | mortality at 200 ppm [10] | mortality at 50 ppm [4] | mortality at 500 ppm [5]

CC(NC(=O)c1cc(C(F)(F)F)cc(C(C)(C)C#N)c1)c1ncnn1-c1ncc(Br)cn1 (centres unmarked) [P79, N-[1-[2-(5-bromopyrimidin-2-yl)-1,2,4-triazol-3-yl]ethyl]-3-(1-cyano-1-methyl-ethyl)-5-(trifluoromethyl)benzamide]
≥ 80%: percent effect (mortality or growth inhibition) at 200 ppm [6] | percent effect (mortality or growth inhibition) at 200 ppm [1] | percent control (mortality, anti-feedant effect or growth inhibition) at 200 ppm [11] | percent effect (mortality or growth inhibition) at 200 ppm [2] | percent control (mortality, anti-feedant effect or growth inhibition) at 200 ppm [12] | mortality at 200 ppm [3]

Cc1nc(C(C)NC(=O)c2cc(C(F)(F)F)cc(C3(C#N)CC3)c2)n(-c2ncccn2)n1 (centres unmarked) [P83, 3-(1-cyanocyclopropyl)-N-[1-(5-methyl-2-pyrimidin-2-yl-1,2,4-triazol-3-yl)ethyl]-5-(trifluoromethyl)benzamide]
≥ 80%: percent effect (mortality or growth inhibition) at 200 ppm [6] | percent effect (mortality or growth inhibition) at 200 ppm [1] | mortality at 200 ppm [13] | percent control (mortality, anti-feedant effect or growth inhibition) at 200 ppm [11] | percent effect (mortality or growth inhibition) at 200 ppm [2] | mortality at 200 ppm [7] | mortality at 24 ppm [8] | mortality at 12 ppm [9] | percent control (mortality, anti-feedant effect or growth inhibition) at 200 ppm [12] | mortality at 200 ppm [3] | mortality at 50 ppm [4]
